Assay results as given in patent US11168073B2, “3,3-difluoroallylamines or salts thereof and pharmaceutical compositions comprising the same” (YUHAN CORPORATION, priority 2018, dated 2021).
Counter-ions that a name gives are not always drawn.

Key:
Assay type in all cases: biochemical
[1] = target: T1, recombinant human DAO (diamine oxidase) (Homo sapiens, UniProt P19801); experiment: Activity evaluation on recombinant human DAO (Amplex Red/HRP-coupled assay, 1 mM putrescine substrate); details: 1 mM putrescine, read-out: Inhibitory Activity (IC50, nM) DAO
T1 construct: purchased R&D systems
T1 sequence (P19801 20-751): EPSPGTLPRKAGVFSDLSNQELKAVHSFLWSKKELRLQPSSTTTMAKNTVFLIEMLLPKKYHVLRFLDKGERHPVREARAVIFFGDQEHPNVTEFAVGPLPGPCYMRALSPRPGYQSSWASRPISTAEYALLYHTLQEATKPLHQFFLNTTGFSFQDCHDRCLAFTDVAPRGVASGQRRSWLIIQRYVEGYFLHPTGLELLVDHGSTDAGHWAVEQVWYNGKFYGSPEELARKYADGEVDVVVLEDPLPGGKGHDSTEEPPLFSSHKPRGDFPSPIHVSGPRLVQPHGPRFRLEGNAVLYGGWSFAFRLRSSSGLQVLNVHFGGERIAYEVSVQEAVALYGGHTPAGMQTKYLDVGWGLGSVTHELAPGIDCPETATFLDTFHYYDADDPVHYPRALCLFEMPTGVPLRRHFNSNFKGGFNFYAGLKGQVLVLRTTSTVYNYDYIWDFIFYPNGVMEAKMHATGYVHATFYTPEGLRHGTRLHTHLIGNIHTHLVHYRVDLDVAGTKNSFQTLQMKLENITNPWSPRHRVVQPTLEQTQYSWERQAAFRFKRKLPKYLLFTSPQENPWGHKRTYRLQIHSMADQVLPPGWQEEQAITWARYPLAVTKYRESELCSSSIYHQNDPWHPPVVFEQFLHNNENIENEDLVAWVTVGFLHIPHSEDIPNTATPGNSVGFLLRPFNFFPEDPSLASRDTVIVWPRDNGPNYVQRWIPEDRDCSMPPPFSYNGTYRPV
Method: (§1) The compounds according to the present technology were evaluated in terms of activity on recombinant human VAP-1 (R&D systems) by measuring the level of hydrogen peroxide in horseradish peroxidase (HRP)-coupled reaction using Amplex Red Hydrogen Peroxide Assay Kit (Molecular Probes, Invitrogen, USA). The experiment was carried out at room temperature using benzylamine as a substrate. In the HRP-coupled reaction, hydrogen peroxide oxidation of 10-acetyl-3,7-dihydroxyphenoxazine (Amplex Red reagent) produces resorufin, which is a highly fluorescent compound. Briefly, the test compound was dissolved in dimethyl sulfoxide (DMSO) at a concentration of 20 mM. The dose-response assessment was made by 1:3 serial dilution in DMSO, thereby creating a 8 point curve. The concentration of the upper part was controlled according to the efficacy of the compounds, followed by the dilution with a reaction buffer solution to obtain a final DMSO concentration of less than 1%. To each well of a 96 black well plate, human VAP-1 purified in 50 mM sodium phosphate buffer solution (pH7.4) was added. The test compounds dissolved in DMSO were incubated with the human VAP-1 enzymes at 37° C. for 30 minutes. After 30-minute incubation, each well was added with a reaction mixture containing 200 uM Amplex Red reagent prepared from 50 mM sodium phosphate buffer solution (pH 7.4), 1 mM benzylamine, and 1 U/mL HRP. Fluorescence intensity was measured at several time points during 1-2 hours using a microplate reader (Flexstation3, Molecular Devices) under the wavelength condition exciting at 544 nm and reading the emission at 590 nm. The inhibitory effect of the compounds was measured as a decrease (%) in the signal rate as compared to the control group without any inhibitor (only diluted DMSO). Data was fixed to a logistic model with four variables and IC50 value was calculated using GraphPad Prism program.
(§2) In addition, the compounds according to the present technology were evaluated in terms of activity on a recombinant human MAO-A (monoamine oxidase-A, Sigma-Aldrich) and a recombinant human MAO-B (monoamine oxidase-B, Sigma-Aldrich) by using as substrates, 0.5 mM tyramine and 1 mM benzylamine, respectively, with a method similar to the activity evaluation method for recombinant human VAP-1. The compounds according to the present technology were also evaluated in terms of activity on a recombinant human DAO (diamine oxidase, R&D systems) by using as a substrate 1 mM putrescine with a method similar to the activity evaluation method for recombinant human VAP-1.

[2] = target: T2, recombinant human MAO-B (monoamine oxidase-B) (Homo sapiens, UniProt P27338); experiment: Activity evaluation on recombinant human MAO-B (Amplex Red/HRP-coupled assay, 1 mM benzylamine substrate); details: 1 mM benzylamine, read-out: Inhibitory Activity (IC50, nM) MAO-B
T2 construct: purchased Sigma-Aldrich
T2 sequence (P27338 1-520): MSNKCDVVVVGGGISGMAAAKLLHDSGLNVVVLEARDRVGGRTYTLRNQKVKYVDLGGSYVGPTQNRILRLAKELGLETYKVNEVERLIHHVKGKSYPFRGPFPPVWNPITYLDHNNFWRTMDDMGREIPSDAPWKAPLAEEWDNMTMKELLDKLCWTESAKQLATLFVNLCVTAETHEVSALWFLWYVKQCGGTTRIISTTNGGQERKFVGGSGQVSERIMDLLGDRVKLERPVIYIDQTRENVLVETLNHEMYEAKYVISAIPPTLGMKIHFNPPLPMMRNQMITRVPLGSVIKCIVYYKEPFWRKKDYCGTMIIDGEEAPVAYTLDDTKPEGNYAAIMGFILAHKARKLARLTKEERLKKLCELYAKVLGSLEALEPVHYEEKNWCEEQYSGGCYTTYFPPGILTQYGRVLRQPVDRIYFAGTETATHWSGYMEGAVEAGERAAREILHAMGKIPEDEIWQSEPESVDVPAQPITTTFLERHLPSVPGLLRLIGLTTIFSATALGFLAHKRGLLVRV
Method: as §1, §2

recombinant human VAP-1 = target: T3, recombinant human VAP-1 (Homo sapiens, UniProt Q16853); experiment: Activity evaluation on recombinant human VAP-1 (Amplex Red/HRP-coupled hydrogen peroxide assay, benzylamine substrate); details: recombinant human VAP-1; 30 min preincubation at 37° C.; 1 mM benzylamine; read-out: Inhibitory Activity (IC50, nM) human VAP-1
T3 construct: purchased R&D systems
T3 sequence (Q16853 1-763): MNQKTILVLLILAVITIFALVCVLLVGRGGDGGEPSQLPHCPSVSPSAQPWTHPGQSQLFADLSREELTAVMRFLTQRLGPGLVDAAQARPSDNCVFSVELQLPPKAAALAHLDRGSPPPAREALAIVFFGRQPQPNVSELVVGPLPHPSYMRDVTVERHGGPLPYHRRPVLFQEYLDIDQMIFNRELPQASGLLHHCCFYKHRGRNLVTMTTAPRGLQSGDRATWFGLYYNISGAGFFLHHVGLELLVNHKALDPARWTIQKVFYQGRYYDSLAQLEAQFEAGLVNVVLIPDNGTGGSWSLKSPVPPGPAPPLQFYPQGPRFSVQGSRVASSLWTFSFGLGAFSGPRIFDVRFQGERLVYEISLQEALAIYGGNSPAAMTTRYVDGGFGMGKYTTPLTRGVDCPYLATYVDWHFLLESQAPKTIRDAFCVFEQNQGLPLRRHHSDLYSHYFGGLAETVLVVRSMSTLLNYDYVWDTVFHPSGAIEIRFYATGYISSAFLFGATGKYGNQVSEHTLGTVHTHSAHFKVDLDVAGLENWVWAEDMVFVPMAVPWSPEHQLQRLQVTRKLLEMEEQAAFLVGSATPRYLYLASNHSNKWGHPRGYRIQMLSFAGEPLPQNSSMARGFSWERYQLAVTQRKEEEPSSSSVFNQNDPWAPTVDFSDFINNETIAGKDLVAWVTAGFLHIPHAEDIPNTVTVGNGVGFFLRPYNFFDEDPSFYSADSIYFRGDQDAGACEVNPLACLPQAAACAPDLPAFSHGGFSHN
Method: as §1

[3] = target: T4, recombinant human MAO-A (monoamine oxidase-A) (Homo sapiens, UniProt P21397); experiment: Activity evaluation on recombinant human MAO-A (Amplex Red/HRP-coupled assay, 0.5 mM tyramine substrate); details: 0.5 mM tyramine, read-out: Inhibitory Activity (IC50, nM) MAO-A
T4 construct: purchased Sigma-Aldrich
T4 sequence (P21397 1-527): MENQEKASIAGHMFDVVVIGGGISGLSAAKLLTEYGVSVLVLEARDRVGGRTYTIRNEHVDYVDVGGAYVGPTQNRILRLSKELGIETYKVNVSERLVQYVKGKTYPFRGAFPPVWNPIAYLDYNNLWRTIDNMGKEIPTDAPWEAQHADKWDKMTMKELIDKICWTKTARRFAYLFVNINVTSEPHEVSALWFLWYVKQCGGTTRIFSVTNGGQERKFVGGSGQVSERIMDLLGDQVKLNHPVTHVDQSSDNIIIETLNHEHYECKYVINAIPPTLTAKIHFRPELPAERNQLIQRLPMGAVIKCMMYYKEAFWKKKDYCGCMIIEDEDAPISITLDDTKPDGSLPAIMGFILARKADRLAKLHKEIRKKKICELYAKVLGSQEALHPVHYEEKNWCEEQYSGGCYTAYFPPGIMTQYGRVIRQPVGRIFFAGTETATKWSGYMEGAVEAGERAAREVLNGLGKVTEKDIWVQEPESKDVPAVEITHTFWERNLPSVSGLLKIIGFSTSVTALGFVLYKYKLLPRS
Method: as §1, §2

| IC50 [1] | IC50 [2] | IC50 (recombinant human VAP-1) | IC50 [3] | Structure (SMILES) |
| --- | --- | --- | --- | --- |
| > 10000 nM | 39000 nM | 2 nM | > 100000 nM | NCC(Cn1ncn(-c2ccc(F)cc2)c1=O)=C(F)F [Example 1, 2-[2-(aminomethyl)-3,3-difluoro-allyl]-4-(4-fluorophenyl)-1,2,4-triazol-3-one Trifluoroacetate] |
| 46000 nM | > 100000 nM | 6.2 nM | > 100000 nM | NCC(Cn1ncn(-c2cccc(Br)c2)c1=O)=C(F)F [Example 2, 2-[2-(aminomethyl)-3,3-difluoro-allyl]-4-(3-bromophenyl)-1,2,4-triazol-3-one Trifluoroacetate] |
| 19000 nM | 25000 nM | 4 nM | > 100000 nM | NCC(Cn1ncn(-c2ccc(F)c(F)c2)c1=O)=C(F)F [Example 3, 2-[2-(aminomethyl)-3,3-difluoro-allyl]-4-(3,4-difluorophenyl)-1,2,4-triazol-3-one Trifluoroacetate] |
| 58000 nM | 2300 nM | 4.2 nM | > 100000 nM | NCC(Cn1ncn(-c2ccc(Br)c(F)c2)c1=O)=C(F)F [Example 4, 2-[2-(aminomethyl)-3,3-difluoro-allyl]-4-(4-bromo-3-fluoro-phenyl)-1,2,4-triazol-3-one Trifluoroacetate] |
| 67000 nM | 4900 nM | 2.5 nM | > 100000 nM | NCC(Cn1ncn(-c2ccc(Br)cc2F)c1=O)=C(F)F [Example 5, 2-[2-(aminomethyl)-3,3-difluoro-allyl]-4-(4-bromo-2-fluoro-phenyl)-1,2,4-triazol-3-one Trifluoroacetate] |
| > 100000 nM | > 100000 nM | 9.4 nM | > 100000 nM | Cc1cc(Br)ccc1-n1cnn(CC(CN)=C(F)F)c1=O [Example 6, 2-[2-(aminomethyl)-3,3-difluoro-allyl]-4-(4-bromo-2-methyl-phenyl)-1,2,4-triazol-3-one trifluoroacetate] |
|  | 6100 nM | 9.4 nM | > 100000 nM | NCC(Cn1ncn(-c2ccc(Br)nc2)c1=O)=C(F)F [Example 7, 2-[2-(aminomethyl)-3,3-difluoro-allyl]-4-(6-bromo-3-pyridyl)-1,2,4-triazol-3-one Trifluoroacetate] |
| 10500 nM | > 100000 nM | 2.2 nM | > 100000 nM | NCC(Cn1ncn(-c2cccc(Br)n2)c1=O)=C(F)F [Example 8, 2-[2-(aminomethyl)-3,3-difluoro-allyl]-4-(6-bromo-2-pyridyl)-1,2,4-triazol-3-one Trifluoroacetate] |
| 7100 nM | > 100000 nM | 3.5 nM | > 100000 nM | NCC(Cn1ncn(-c2cc(Br)ccn2)c1=O)=C(F)F [Example 9, 2-[2-(aminomethyl)-3,3-difluoro-allyl]-4-(4-bromo-2-pyridyl)-1,2,4-triazol-3-one Trifluoroacetate] |
| 1200 nM | > 100000 nM | 7.7 nM | > 100000 nM | NCC(Cn1ncn(-c2ccnc(Br)c2)c1=O)=C(F)F [Example 10, 2-[2-(aminomethyl)-3,3-difluoro-allyl]-4-(2-bromo-4-pyridyl)-1,2,4-triazol-3-one Trifluoroacetate] |
| > 100000 nM | 57000 nM | 1.1 nM | > 100000 nM | Cc1cc(Br)cnc1-n1cnn(CC(CN)=C(F)F)c1=O [Example 11, 2-[2-(aminomethyl)-3,3-difluoro-allyl]-4-(5-bromo-3-methyl-2-pyridyl)-1,2,4-triazol-3-one Trifluoroacetate] |
| 11000 nM |  | 0.8 nM | > 100000 nM | CN(C)c1ncc(-c2ccc(Cn3cnn(CC(CN)=C(F)F)c3=O)s2)cc1F [Example 115, 2-[2-(aminomethyl)-3,3-difluoro-allyl]-4-[[5-[6-(dimethylamino)-5-fluoro-3-pyridyl]-2-thienyl]methyl]-1,2,4-triazol-3-one Trifluoroacetate] |
| > 10000 nM |  | 0.7 nM | > 10000 nM | CN(C)c1ccc(C#Cc2ccc(Cn3cnn(CC(CN)=C(F)F)c3=O)s2)cn1 [Example 162, 2-[2-(aminomethyl)-3,3-difluoro-allyl]-4-[[5-[2-[6-(dimethylamino)-3-pyridyl]ethynyl]-2-thienyl]methyl]-1,2,4-triazol-3-one Trifluoroacetate] |
